Patent publication EP0319030A1, “Aminopropanol derivatives of 1,4:3,6-dianhydro-hexitol nitrates, processes for their preparation and their use as medicaments” (Heinrich Mack Nachf., priority 1987, dated 1989)
Marks after values point to notes of the source that are not given here.

How the values were obtained:
Type in all cases: in vivo
Mice = experiment: Peroral tolerance in mice
Excerpt: Set forth below is data obtained on the compounds of Examples 17, 19 and 20 that illustrates the pharmacological action of the compounds of the present invention.

anesthetized dogs = experiment: Cardiovascular actions following intra-venous administration, opened thorax and artificial respiration; conditions: opened thorax, artificial respiration
Excerpt: (§1) In particular, they have a pronounced cardiovascular action. On isolated strips of veins from dogs, they act against the K⁺-induced contraction in a lower concentration than on aorta strips. On isolated hearts from guinea pigs, they increase coronary flow as a function of the dose. On anesthetized rats, they prevent lypressin coronary spasm as a function of the dose and significiantly increase the survival rate of rats following acute cardiac infarction. On normotensive conscious dogs, they lower the systolic blood pressure for a period of 6-8 hours after oral administration. On artifically respirated anesthetized, thoraxotomized dogs, they reduce the mean arterial pressure, the left ventricular systolic pressure, the left ventricular end diastolic pressure and the pressure in the Arteria pulmonalis and reduce the peripheral vascular resistance. In contrast to the known organic nitrate esters, they also lead to a long-lasting reduction in the systolic blood pressure of spontaneously hypertensive rats. Such an action profile is not known for any of the substances of similar structure which have already been described.

anesthetized rat = experiment: Lypressin-induced T-wave increase in the ECG (lypressin coronary spasm), method of M. Leitold et al.; conditions: for ED50: Rattus norvegicus, po, 0.5 h, perorally 30 minutes before the lypressin injection, dose column in mg/kg; for Duration of action at the ED50 dose: perorally at various times before the lypressin injection
Excerpt: as §1

conscious beagle dogs = experiment: Systolic blood pressure and heart rate following peroral administration; conditions: mean ± SEM
Excerpt: as §1

rats = experiment: Survival rate after acute coronary ligature, method of I. Lepran et al.; conditions: for Number of rats surviving after an acute coronary ligature, 24 hours / Number of rats surviving after an acute coronary ligature, 7 days: control 21/80; for Number of rats surviving after an acute coronary ligature, 60 minutes: control 23/80
Excerpt: as §1

[1] = 30.0 mg/kg orally 5 minutes before ligature
[2] = 100.0 mg/kg orally 5 minutes before ligature

COc1ccccc1N1CCN(CC(O)CO[C@H]2CO[C@H]3[C@@H]2OC[C@H]3O[N+](=O)[O-])CC1 (stereo partly drawn) [Example 17, 2-O-<3-[4-(2-Methoxyphenyl)-piperazinyl]-2-hydroxypropyl>-isosorbide-5-nitrate]
tolerance (clinical symptoms, fatal consequences) (Mice; mouse, in vivo): without clinical symptoms and without fatal consequences
CO, Action of substance (anesthetized dogs; 30 µg/kg intra-venous): 0.93 ± 0.07 l/M
CO, Change (anesthetized dogs; 30 µg/kg intra-venous): 0.07 ± 0.04 l/M
CO, Duration of action (anesthetized dogs; 30 µg/kg intra-venous): 6 ± 3 min
HR (heart rate), Action of substance (anesthetized dogs; 30 µg/kg intra-venous): 219 ± 18 Bts/M
HR (heart rate), Change (anesthetized dogs; 30 µg/kg intra-venous): 21 ± 18 Bts/M
HR (heart rate), Duration of action (anesthetized dogs; 30 µg/kg intra-venous): 6 ± 2 min
LVEDP (left ventricular enddiastolic pressure), Action of substance (anesthetized dogs; 30 µg/kg intra-venous): 6.2 ± 0.7 mmHg
LVEDP (left ventricular enddiastolic pressure), Change (anesthetized dogs; 30 µg/kg intra-venous): 0.2 ± 0.03 mmHg
LVEDP (left ventricular enddiastolic pressure), Duration of action (anesthetized dogs; 30 µg/kg intra-venous): 2.2 ± 1.3 min
LVSP (left ventricular systolic blood pressure), Action of substance (anesthetized dogs; 30 µg/kg intra-venous): 131 ± 9 mmHg
LVSP (left ventricular systolic blood pressure), Change (anesthetized dogs; 30 µg/kg intra-venous): 19 ± 6 mmHg
LVSP (left ventricular systolic blood pressure), Duration of action (anesthetized dogs; 30 µg/kg intra-venous): 5 ± 3 min
MAP (mean arterial blood pressure), Action of substance (anesthetized dogs; 30 µg/kg intra-venous): 83 ± 1 mmHg
MAP (mean arterial blood pressure), Change (anesthetized dogs; 30 µg/kg intra-venous): 23 ± 2 mmHg
MAP (mean arterial blood pressure), Duration of action (anesthetized dogs; 30 µg/kg intra-venous): 14 ± 1 min
PAP, Action of substance (anesthetized dogs; 30 µg/kg intra-venous): 17.0 ± 4 mmHg
PAP, Change (anesthetized dogs; 30 µg/kg intra-venous): 1.3 ± 0.5 mmHg
PAP, Duration of action (anesthetized dogs; 30 µg/kg intra-venous): 2 ± 0.3 min
SV, Action of substance (anesthetized dogs; 30 µg/kg intra-venous): 52 ± 0.4 mL/s
SV, Change (anesthetized dogs; 30 µg/kg intra-venous): 0.4 ± 0.2 mL/s
SV, Duration of action (anesthetized dogs; 30 µg/kg intra-venous): 2 ± 0.2 min
TPR (total peripheral vascular resistance), Action of substance (anesthetized dogs; 30 µg/kg intra-venous): 65 ± 12 mmHg/ml
TPR (total peripheral vascular resistance), Change (anesthetized dogs; 30 µg/kg intra-venous): 23 ± 4 mmHg/ml
TPR (total peripheral vascular resistance), Duration of action (anesthetized dogs; 30 µg/kg intra-venous): > 14 min
dp/dtmax (maximum rate of increase in the left ventricular pressure), Action of substance (anesthetized dogs; 30 µg/kg intra-venous): 3144 ± 166 mmHg/s
dp/dtmax (maximum rate of increase in the left ventricular pressure), Change (anesthetized dogs; 30 µg/kg intra-venous): 424 ± 95 mmHg/s
dp/dtmax (maximum rate of increase in the left ventricular pressure), Duration of action (anesthetized dogs; 30 µg/kg intra-venous): 8 ± 3 min
CO, Action of substance (anesthetized dogs; 300 µg/kg intra-venous): 0.684 ± 0.137 l/M
CO, Change (anesthetized dogs; 300 µg/kg intra-venous): 0.127 ± 0.046 l/M
CO, Duration of action (anesthetized dogs; 300 µg/kg intra-venous): 73 ± 40 min
HR (heart rate), Action of substance (anesthetized dogs; 300 µg/kg intra-venous): 206 ± 15 Bts/M
HR (heart rate), Change (anesthetized dogs; 300 µg/kg intra-venous): 15 ± 13 Bts/M
HR (heart rate), Duration of action (anesthetized dogs; 300 µg/kg intra-venous): 2.4 ± 1 min
LVEDP (left ventricular enddiastolic pressure), Action of substance (anesthetized dogs; 300 µg/kg intra-venous): 5.5 ± 0.8 mmHg
LVEDP (left ventricular enddiastolic pressure), Change (anesthetized dogs; 300 µg/kg intra-venous): 0.3 ± 0.1 mmHg
LVEDP (left ventricular enddiastolic pressure), Duration of action (anesthetized dogs; 300 µg/kg intra-venous): 5.6 ± 2 min
LVSP (left ventricular systolic blood pressure), Action of substance (anesthetized dogs; 300 µg/kg intra-venous): 115 ± 4 mmHg
LVSP (left ventricular systolic blood pressure), Change (anesthetized dogs; 300 µg/kg intra-venous): 39 ± 5 mmHg
LVSP (left ventricular systolic blood pressure), Duration of action (anesthetized dogs; 300 µg/kg intra-venous): 151 ± 24 min
MAP (mean arterial blood pressure), Action of substance (anesthetized dogs; 300 µg/kg intra-venous): 49 ± 3 mmHg
MAP (mean arterial blood pressure), Change (anesthetized dogs; 300 µg/kg intra-venous): 55 ± 6 mmHg
MAP (mean arterial blood pressure), Duration of action (anesthetized dogs; 300 µg/kg intra-venous): 157 ± 39 min
PAP, Action of substance (anesthetized dogs; 300 µg/kg intra-venous): 18.2 ± 5 mmHg
PAP, Change (anesthetized dogs; 300 µg/kg intra-venous): 1.5 ± 0.5 mmHg
PAP, Duration of action (anesthetized dogs; 300 µg/kg intra-venous): 1.4 ± 0.1 min
SV, Action of substance (anesthetized dogs; 300 µg/kg intra-venous): 3.7 ± 0.4 mL/s
SV, Change (anesthetized dogs; 300 µg/kg intra-venous): 0.7 ± 0.3 mL/s
SV, Duration of action (anesthetized dogs; 300 µg/kg intra-venous): 74 ± 43 min
TPR (total peripheral vascular resistance), Action of substance (anesthetized dogs; 300 µg/kg intra-venous): 42 ± 2 mmHg/ml
TPR (total peripheral vascular resistance), Change (anesthetized dogs; 300 µg/kg intra-venous): 42 ± 6 mmHg/ml
TPR (total peripheral vascular resistance), Duration of action (anesthetized dogs; 300 µg/kg intra-venous): 163 ± 16 min
dp/dtmax (maximum rate of increase in the left ventricular pressure), Action of substance (anesthetized dogs; 300 µg/kg intra-venous): 2133 ± 310 mmHg/s
dp/dtmax (maximum rate of increase in the left ventricular pressure), Change (anesthetized dogs; 300 µg/kg intra-venous): 1547 ± 423 mmHg/s
dp/dtmax (maximum rate of increase in the left ventricular pressure), Duration of action (anesthetized dogs; 300 µg/kg intra-venous): > 197 min
CO, Action of substance (anesthetized dogs; 3000 µg/kg intra-venous): 0.405 ± 0.055 l/M
CO, Change (anesthetized dogs; 3000 µg/kg intra-venous): 0.450 ± 0.025 l/M
CO, Duration of action (anesthetized dogs; 3000 µg/kg intra-venous): > 75 min
HR (heart rate), Action of substance (anesthetized dogs; 3000 µg/kg intra-venous): 182 ± 17 Bts/M
HR (heart rate), Change (anesthetized dogs; 3000 µg/kg intra-venous): 20 ± 17 Bts/M
HR (heart rate), Duration of action (anesthetized dogs; 3000 µg/kg intra-venous): 1.4 ± 0.3 min
LVEDP (left ventricular enddiastolic pressure), Action of substance (anesthetized dogs; 3000 µg/kg intra-venous): 5.6 ± 1 mmHg
LVEDP (left ventricular enddiastolic pressure), Change (anesthetized dogs; 3000 µg/kg intra-venous): 0.6 ± 0.3 mmHg
LVEDP (left ventricular enddiastolic pressure), Duration of action (anesthetized dogs; 3000 µg/kg intra-venous): > 73 min
LVSP (left ventricular systolic blood pressure), Action of substance (anesthetized dogs; 3000 µg/kg intra-venous): 113 ± 3 mmHg
LVSP (left ventricular systolic blood pressure), Change (anesthetized dogs; 3000 µg/kg intra-venous): 48 ± 3 mmHg
LVSP (left ventricular systolic blood pressure), Duration of action (anesthetized dogs; 3000 µg/kg intra-venous): > 74 min
MAP (mean arterial blood pressure), Action of substance (anesthetized dogs; 3000 µg/kg intra-venous): 33 ± 2 mmHg
MAP (mean arterial blood pressure), Change (anesthetized dogs; 3000 µg/kg intra-venous): 67 ± 4 mmHg
MAP (mean arterial blood pressure), Duration of action (anesthetized dogs; 3000 µg/kg intra-venous): > 114 min
PAP, Action of substance (anesthetized dogs; 3000 µg/kg intra-venous): 18.2 ± 7 mmHg
PAP, Change (anesthetized dogs; 3000 µg/kg intra-venous): 2.3 ± 0.8 mmHg
PAP, Duration of action (anesthetized dogs; 3000 µg/kg intra-venous): 2 ± 0.6 min
SV, Action of substance (anesthetized dogs; 3000 µg/kg intra-venous): 3.0 ± 0.6 mL/s
SV, Change (anesthetized dogs; 3000 µg/kg intra-venous): 2.6 ± 0.4 mL/s
SV, Duration of action (anesthetized dogs; 3000 µg/kg intra-venous): > 75 min
TPR (total peripheral vascular resistance), Action of substance (anesthetized dogs; 3000 µg/kg intra-venous): 44 ± 10 mmHg/ml
TPR (total peripheral vascular resistance), Change (anesthetized dogs; 3000 µg/kg intra-venous): 74 ± 6 mmHg/ml
TPR (total peripheral vascular resistance), Duration of action (anesthetized dogs; 3000 µg/kg intra-venous): 24 ± 6 min
dp/dtmax (maximum rate of increase in the left ventricular pressure), Action of substance (anesthetized dogs; 3000 µg/kg intra-venous): 2019 ± 123 mmHg/s
dp/dtmax (maximum rate of increase in the left ventricular pressure), Change (anesthetized dogs; 3000 µg/kg intra-venous): 1828 ± 238 mmHg/s
dp/dtmax (maximum rate of increase in the left ventricular pressure), Duration of action (anesthetized dogs; 3000 µg/kg intra-venous): > 75 min
ED50 (anesthetized rat): 89.5 mg/kg
Duration of action at the ED50 dose (anesthetized rat): 2 h
HR (heart rate), Action of substance after 1 hours (conscious beagle dogs; 6.0 mg/kg peroral): 101 ± 17 Bts/M
HR (heart rate), Action of substance after 2 hours (conscious beagle dogs; 6.0 mg/kg peroral): 110 ± 16 Bts/M
HR (heart rate), Action of substance after 4 hours (conscious beagle dogs; 6.0 mg/kg peroral): 89 ± 8 Bts/M
HR (heart rate), Action of substance after 6 hours (conscious beagle dogs; 6.0 mg/kg peroral): 89 ± 5 Bts/M
HR (heart rate), Action of substance after 8 hours (conscious beagle dogs; 6.0 mg/kg peroral): 85 ± 7 Bts/M
SBP (systolic blood pressure), Action of substance after 1 hours (conscious beagle dogs; 6.0 mg/kg peroral): 91 ± 6 mmHg
SBP (systolic blood pressure), Action of substance after 2 hours (conscious beagle dogs; 6.0 mg/kg peroral): 89 ± 4 mmHg
SBP (systolic blood pressure), Action of substance after 4 hours (conscious beagle dogs; 6.0 mg/kg peroral): 97 ± 5 mmHg
SBP (systolic blood pressure), Action of substance after 6 hours (conscious beagle dogs; 6.0 mg/kg peroral): 101 ± 5 mmHg
SBP (systolic blood pressure), Action of substance after 8 hours (conscious beagle dogs; 6.0 mg/kg peroral): 115 ± 7 mmHg
Number of rats surviving after an acute coronary ligature, 24 hours (rats; [1]): 17/20**
Number of rats surviving after an acute coronary ligature, 7 days (rats; [1]): 17/20**
Number of rats surviving after an acute coronary ligature, 60 minutes (rats; [1]): 17/20**

COc1ccccc1N1CCN(CC(O)CO[C@@H]2CO[C@H]3[C@@H]2OC[C@H]3O[N+](=O)[O-])CC1 (stereo partly drawn) [Example 19, 5-O-<3-[4-(2-Methoxyphenyl)-piperzinyl]-2-hydroxypropyl>-isomannide-2-nitrate]
tolerance (clinical symptoms, fatal consequences) (Mice; 500 mg/kg perorally, mice): without clinical symptoms and without fatal consequences
ED50 (anesthetized rat): 46.7 mg/kg
Duration of action at the ED50 dose (anesthetized rat): 4 h
HR (heart rate), Action of substance after 1 hours (conscious beagle dogs; 5.0 mg/kg peroral): 101 ± 5 Bts/M
HR (heart rate), Action of substance after 2 hours (conscious beagle dogs; 5.0 mg/kg peroral): 90 ± 5 Bts/M
HR (heart rate), Action of substance after 4 hours (conscious beagle dogs; 5.0 mg/kg peroral): 85 ± 5 Bts/M
HR (heart rate), Action of substance after 6 hours (conscious beagle dogs; 5.0 mg/kg peroral): 86 ± 5 Bts/M
SBP (systolic blood pressure), Action of substance after 1 hours (conscious beagle dogs; 5.0 mg/kg peroral): 105 ± 8 mmHg
SBP (systolic blood pressure), Action of substance after 2 hours (conscious beagle dogs; 5.0 mg/kg peroral): 105 ± 5 mmHg
SBP (systolic blood pressure), Action of substance after 4 hours (conscious beagle dogs; 5.0 mg/kg peroral): 118 ± 6 mmHg
SBP (systolic blood pressure), Action of substance after 6 hours (conscious beagle dogs; 5.0 mg/kg peroral): 126 ± 6 mmHg
Number of rats surviving after an acute coronary ligature, 24 hours (rats; [2]): 15/20*
Number of rats surviving after an acute coronary ligature, 7 days (rats; [2]): 15/20*
Number of rats surviving after an acute coronary ligature, 60 minutes (rats; [2]): 15/20*
